Data set [1] is described as follows: LogP measurement by HPLC on reversed phase columns (EEC directive 79/831 Annex V.A8). It is filed as physicochemical. The procedure:
If more than one LogP value is available within the same method, all the values are given and separated by "+".
Lambda-max-values were determined using UV-spectra from 200 nm to 400 nm and the peak values of the chromatographic signals.

The next data set concerns Puccinia recondita. As to the kind of experiment: in vivo preventive test on Puccinia recondita (brown rust on wheat). The conditions noted are these: for efficacy: 500 ppm; for pest or weed control at 500 ppm: Puccinia recondita, 264 h, 500 ppm of active ingredient, young wheat plants sprayed, inoculated after 24 hours, evaluated 11 days after the inoculation, read-out: efficacy. The procedure:
Example: in vivo preventive test on Puccinia recondita (brown rust on wheat)
(§1) The active ingredients were made soluble and homogenized in a mixture of Dimethyl sulfoxide/Acetone/ /Tween® 80 and then diluted in water to the desired concentration.
The young plants of wheat were treated by spraying the active ingredient prepared as described above. Control plants were treated only with an aqueous solution of Acetone/Dimethyl sulfoxide/ Tween® 80.
After 24 hours, the plants were contaminated by spraying the leaves with an aqueous suspension of Puccinia recondita spores. The contaminated wheat plants were incubated for 24 hours at 20°C and at 100% relative humidity and then for 10 days at 20°C and at 70-80% relative humidity.
The test was evaluated 11 days after the inoculation. 0% means an efficacy which corresponds to that of the control plants while an efficacy of 100% means that no disease was observed.

For the next data set, the system named is Phakospora pachyrhizi. Kind of data set: in vivo preventive test on Phakospora pachyrhizi (soybean rust). The conditions noted are these: for efficacy: 500 ppm; for pest or weed control at 500 ppm: Glycine max, 288 h, 500 ppm of active ingredient, young soybean plants sprayed, inoculated after 24 hours, evaluated 12 days after the inoculation, read-out: efficacy. How it is done:
Example: in vivo preventive test on Phakospora pachyrhizi (soybean rust)
as §1
The young plants of soybean were treated by spraying the active ingredient prepared as described above. Control plants were treated only with an aqueous solution of Acetone/Dimethyl sulfoxide/ […].
After 24 hours, the plants were contaminated by spraying the leaves with an aqueous suspension of Phakosporapachyrhizi spores. The contaminated soybean plants were incubated for 24 hours at 24°C and at 100% relative humidity and then for 11 days at 24°C and at 70-80% relative humidity.
The test was evaluated 12 days after the inoculation. 0% means an efficacy which corresponds to that of the control plants while an efficacy of 100% means that no disease was observed.

The subject of another data set is Sphaerotheca fuliginea. Kind of data set: in vivo preventive test on Sphaerotheca fuliginea (powdery mildew on cucurbits). The conditions noted are these: 500 ppm of active ingredient, young gherkin plants sprayed, inoculated after 24 hours, evaluated 8 days after the inoculation; for pest or weed control at 500 ppm: Podosphaera fuliginea, 192 h, read-out: efficacy. The procedure: Example: in vivo preventive test on Sphaerotheca fuliginea (powdery mildew on cucurbits)
as §1
The young plants of gherkin were treated by spraying the active ingredient prepared as described above. Control plants were treated only with an aqueous solution of Acetone/Dimethyl sulfoxide/ […].
After 24 hours, the plants were contaminated by spraying the leaves with an aqueous suspension of Sphaerotheca fuliginea spores. The contaminated gherkin plants were incubated for 8 days at 20°C and at 70-80% relative humidity.
The test was evaluated 8 days after the inoculation. 0% means an efficacy which corresponds to that of the control plants while an efficacy of 100% means that no disease was observed.

Where [2] appears, read: method [a]: LC-UV, acidic range, 0.1% formic acid in water and acetonitrile as eluent.
Where [3] appears, read: method [b]: LC-UV, neutral range, 0.001 molar ammonium acetate solution in water and acetonitrile as eluent.
Setting [4] is: reversed phase HPLC column, method [a]: LC-UV, acidic range, 0.1% formic acid in water and acetonitrile as eluent.
[5] abbreviates: reversed phase HPLC column, method [b]: LC-UV, neutral range, 0.001 molar ammonium acetate solution in water and acetonitrile as eluent.

As for `CCN(C)C=Nc1cc(Br)c(Oc2ccnc(C(C)(C)C)n2)cc1C` [I.038, N'-[5-bromo-4-(2-tert-butylpyrimidin-4-yl)oxy-2-methylphenyl]-N-ethyl-N-methylmethanimid-amide], the chromatographic logP (as a rule, a lipophilicity value derived from retention on a column) stood at 1.58 in data set [1] (setting [2]) and 4.93 in data set [1] (setting [3]). In addition, the efficacy result in the data set with Puccinia recondita and in the data set with Phakospora pachyrhizi was “at least 70%” each time.

Turning to `CCN(C)C=Nc1cc(C)c(Oc2ccnc(SCc3ccccc3)n2)cc1C` [I.042, N'-[4-(2-benzylsulfanylpyrimidin-4-yl)oxy-2,5-dimethylphenyl]-N-ethyl-N-methylmethanimid-amide], the chromatographic logP was determined as 1.63 in data set [1] (setting [2]) and 4.82 in data set [1] (setting [3]). The efficacy result with Puccinia recondita, in the data set with Sphaerotheca fuliginea and with Phakospora pachyrhizi was “at least 70%” in each case.

As for `CCC(C)Sc1cc(Oc2cc(C)c(N=CN(C)CC)cc2C)nc(C)n1` (centres unmarked) [I.024, N'-[4-(6-butan-2-ylsulfanyl-2-methylpyrimidin-4-yl)oxy-2,5-dimethylphenyl]-N-ethyl-N-methyl-methanimidamide], the chromatographic logP in data set [1] (setting [4]) stood at 2.02; in data set [1] (setting [5]) it was 5.98. The pest or weed control at 500 ppm in the data set with Puccinia recondita, in the data set on Sphaerotheca fuliginea and with Phakospora pachyrhizi was not below 70% each time.

Take `CCN(C)C=Nc1cc(C)c(Oc2ccnc(SCC(F)(F)F)n2)cc1C` [I.031, N'-[2,5-dimethyl-4-[2-(2,2,2-trifluoroethylsulfanyl)pyrimidin-4-yl]oxyphenyl]-N-ethyl-N-methylmethanimidamide]: the chromatographic logP in data set [1] (setting [4]) was 1.52; in data set [1] (setting [5]), 4.37. Also, the pest or weed control at 500 ppm with Puccinia recondita, in the data set with Sphaerotheca fuliginea and in the data set with Phakospora pachyrhizi was not below 70% throughout.

`CCN(C)C=Nc1cc(Br)c(Oc2cc(SC(C)(C)C)nc(C)n2)cc1C` [I.018, N'-[5-bromo-4-(6-tert-butylsulfanyl-2-methylpyrimidin-4-yl)oxy-2-methylphenyl]-N-ethyl-N-methylmethanimidamide]: the chromatographic logP in data set [1] (setting [4]) is 2.11; in data set [1] (setting [5]), 5.99. Also, the pest or weed control at 500 ppm in the data set with Puccinia recondita, with Sphaerotheca fuliginea and in the data set on Phakospora pachyrhizi was not below 70% throughout.

For the compound `CCN(C)C=Nc1cc(C)c(Oc2ccnc(SC(C)(C)C)n2)cc1Cl` [I.045, N'-[4-(2-tert-butylsulfanylpyrimidin-4-yl)oxy-2-chloro-5-methylphenyl]-N-ethyl-N-methyl-methanimidamide], the chromatographic logP in data set [1] (setting [4]) was determined as 1.63; in data set [1] (setting [5]), 4.5. Also, the pest or weed control at 500 ppm with Puccinia recondita, in the data set on Sphaerotheca fuliginea and in the data set on Phakospora pachyrhizi was not below 70% in each case.

`CCSc1nccc(Oc2cc(C)c(N=CN(C)CC)cc2Br)n1` [I.016, N'-[5-bromo-4-(2-ethylsulfanylpyrimidin-4-yl)oxy-2-methylphenyl]-N-ethyl-N-methylmethan-imidamide]: the chromatographic logP in data set [1] (setting [4]) was 1.46; in data set [1] (setting [5]), 4.44. In addition, the pest or weed control at 500 ppm with Puccinia recondita, in the data set with Sphaerotheca fuliginea and in the data set on Phakospora pachyrhizi was not below 70% throughout.

For the compound `CCN(C)C=Nc1cc(C#N)c(Oc2ccnc(SCC(C)C)n2)cc1C` [I.049, N'-[5-cyano-2-methyl-4-[2-(2-methylpropylsulfanyl)pyrimidin-4-yl]oxyphenyl]-N-ethyl-N-methylmethanimidamide], the chromatographic logP in data set [1] (setting [4]) came out at 1.6; in data set [1] (setting [5]) it was 4.5. Also, the pest or weed control at 500 ppm with Puccinia recondita and in the data set with Sphaerotheca fuliginea was not below 70% throughout.

In data set [1] (setting [4]), `CCN(C)C=Nc1cc(C)c(Oc2ccnc(Sc3ccncc3)n2)cc1C` [I.047, N'-[2,5-dimethyl-4-(2-pyridin-4-ylsulfanylpyrimidin-4-yl)oxyphenyl]-N-ethyl-N-methylmethan-imidamide] yielded a chromatographic logP of 1.13. Besides, the pest or weed control at 500 ppm in the data set with Sphaerotheca fuliginea is not below 70%.

As to `CCN(C)C=Nc1cc(C)c(Oc2ccnc(SCC(C)C)n2)cc1C` [I.026, N'-[2,5-dimethyl-4-[2-(2-methylpropylsulfanyl)pyrimidin-4-yl]oxyphenyl]-N-ethyl-N-methyl-methanimidamide], the chromatographic logP turned out to be 1.61 in data set [1] (setting [4]) and 5.06 in data set [1] (setting [5]). For the same compound, the pest or weed control at 500 ppm with Puccinia recondita and with Phakospora pachyrhizi was not below 70% in each case.

On to `CCCSc1nccc(Oc2cc(C)c(N=CN(C)CC)cc2C#N)n1` [I.050, N'-[5-cyano-2-methyl-4-(2-propylsulfanylpyrimidin-4-yl)oxyphenyl]-N-ethyl-N-methylmethan-imidamide], for which the chromatographic logP was determined as 1.44 in data set [1] (setting [4]) and 4.16 in data set [1] (setting [5]). Moreover, the pest or weed control at 500 ppm with Puccinia recondita and with Sphaerotheca fuliginea was not below 70% each time.

As to `CCN(C)C=Nc1cc(C)c(Oc2ccnc(SCC3CC3)n2)cc1C` [I.040, N'-[4-[2-(cyclopropylmethylsulfanyl)pyrimidin-4-yl]oxy-2,5-dimethylphenyl]-N-ethyl-N-methylmethanimidamide], the chromatographic logP in data set [1] (setting [4]) was 1.55. Also, the pest or weed control at 500 ppm with Puccinia recondita, in the data set on Sphaerotheca fuliginea and in the data set on Phakospora pachyrhizi was not below 70% throughout.

In data set [1] (setting [4]), `CCN(C)C=Nc1cc(C(F)(F)F)c(Oc2ccnc(SCC(C)C)n2)cc1C` [I.035, N-ethyl-N-methyl-N'-[2-methyl-4-[2-(2-methylpropylsulfanyl)pyrimidin-4-yl]oxy-5-(trifluoromethyl)phenyl]methanimidamide] displayed a chromatographic logP of 1.93. The pest or weed control at 500 ppm with Puccinia recondita and with Phakospora pachyrhizi was not below 70% throughout.

As to `CCN(C)C=Nc1cc(C)c(Oc2ccnc(SC(C)C)n2)cc1Cl` [I.046, N'-[2-chloro-5-methyl-4-(2-propan-2-ylsulfanylpyrimidin-4-yl)oxyphenyl]-N-ethyl-N-methyl-methanimidamide], the chromatographic logP was 1.52 in data set [1] (setting [4]) and 4.35 in data set [1] (setting [5]). The pest or weed control at 500 ppm in the data set on Puccinia recondita is not below 70%.

In the case of `CCN(C)C=Nc1cc(C)c(Oc2ccnc(C(C)(C)C)n2)cc1C` [I.032, N'-[4-(2-tert-butylpyrimidin-4-yl)oxy-2,5-dimethylphenyl]-N-ethyl-N-methylmethanimidamide], the chromatographic logP in data set [1] (setting [4]) turned out to be 1.46; in data set [1] (setting [5]), 4.56. The pest or weed control at 500 ppm in the data set with Puccinia recondita and in the data set on Phakospora pachyrhizi was not below 70% throughout.

As to `CCN(C)C=Nc1cc(C)c(Oc2ccnc(SCC(C)C)n2)cc1Cl` [I.048, N'-[2-chloro-5-methyl-4-[2-(2-methylpropylsulfanyl)pyrimidin-4-yl]oxyphenyl]-N-ethyl-N-methylmethanimidamide], the chromatographic logP in data set [1] (setting [4]) is 1.72; in data set [1] (setting [5]), 4.77. The pest or weed control at 500 ppm in the data set on Puccinia recondita and in the data set with Sphaerotheca fuliginea was not below 70% in each case.

Compound `CCN(C)C=Nc1cc(C(F)F)c(Oc2nc(SCC(C)C)ncc2C)cc1C` [I.051, N'-[5-(difluoromethyl)-2-methyl-4-[5-methyl-2-(2-methylpropylsulfanyl)pyrimidin-4-yl]oxyphenyl]-N-ethyl-N-methylmethanimidamide] displayed a chromatographic logP in data set [1] (setting [4]) of 1.9. Besides, the pest or weed control at 500 ppm with Sphaerotheca fuliginea is not below 70%.

The values above are taken from patent EP3708565A1, “PYRIMIDINYLOXYPHENYLAMIDINES AND THE USE THEREOF AS FUNGICIDES” (Bayer AG, priority 2020, dated 2020).
